The structures appear in SMILES notation.

The target of the experiment is T1, IL-17A (Homo sapiens, UniProt Q16552).
T1 sequence (Q16552 24-155): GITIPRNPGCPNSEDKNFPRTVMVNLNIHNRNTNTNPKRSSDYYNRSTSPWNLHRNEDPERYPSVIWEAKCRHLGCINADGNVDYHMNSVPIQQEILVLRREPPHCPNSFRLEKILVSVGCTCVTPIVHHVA
Description: Inhibition of IL-17A induced IL-6 release from dermal fibroblast cell line (HDF cell line assay). Type of experiment: cell-based. The following applies: HDF cells stimulated with IL-17A 50 pM + TNFα 25 pM, IL-6 release by HTRF. From the text: Inhibition of IL-17A Induced IL-6 Release from Dermal Fibroblast Cell Line The purpose of this assay is to test the neutralising ability to IL-17 proteins, in a human primary cell system. Stimulation of normal human dermal fibroblasts (HDF) with IL-17 alone produces only a very weak signal but in combination with certain other cytokines, such as TNFα, a synergistic effect can be seen in the production of inflammatory cytokines, i.e. IL-6. HDFs were stimulated with IL-17A (50 pM) in combination with TNF-α (25 pM). The resultant IL-6 response was then measured using a homogenous time-resolved FRET kit from Cisbio. The kit utilises two monoclonal antibodies, one labelled with Eu-Cryptate (Donor) and the second with d2 or XL665 (Acceptor). The intensity of the signal is proportional to the concentration of IL-6 present in the sample (Ratio is calculated by 665/620×104). The ability of a compound to inhibit IL-17 induced IL-6 release from human dermal fibroblasts is measured in this assay. […] The cells were re-suspended in complete media (5 mL) counted and adjusted to a concentration of 3.125×10^4 cells/mL before being added to the 384 well assay plate (Corning #3701) at 40 μL per well. […] The mixture was incubated at room temperature for 3 h with gentle shaking (<400 rpm) before being read on a Synergy Neo 2 plate reader (Excitation: 330 nm; Emission: […]).
(In TR-FRET formats the signal depends on donor and acceptor labels being close together.)

As usually defined, the pIC50 is the negative decadic logarithm of the IC50, by convention in mol/L. For the compound `Cc1nonc1C(=O)N[C@H](c1cn2ncc(C3(C(=O)NCC(C)(F)F)CC(C)(O)C3)nc2n1)C1CCC(F)(F)CC1` (single isomer, unassigned) [Example 1], for the setting “listed as 1 (Peak 1)”, the pIC50 was 7.7.

Consider `Cc1nonc1C(=O)N[C@H](c1cn2ncc(C3(C(=O)NCC(C)(F)F)CC(C)(O)C3)nc2n1)C1CCC(F)(F)CC1` (single isomer, unassigned) [Example 2], for which, under “listed as 2 (Peak 2)”, the pIC50 was 8.4.
